Measurements taken from paper PMC13070491, “Single-nucleus transcriptomics, pharmacokinetics, and pharmacodynamics of CDK4/6 and mTOR inhibition in a Phase 0/1 trial of recurrent high-grade glioma” (Neuro-Oncology, 2025).

Test system: GB126, GB239 and GB86 patient-derived cell lines
Assay: In vitro single-cell RNA sequencing, analyses across the cell lines (pseudobulk differential gene expression, GSEA, non-cycling cells)
Type: cell-based, human
Settings: pseudobulk, ribociclib versus control (DMSO)
Description: Patient-derived glioma stem cell lines (GSCs; GB126, GB86, and GB239) were established from resected GBM tumor tissue. Cell lines were genetically profiled for mutations and copy number aberrations using the IvySeq custom gene panel. […] GB239 was derived from a tumor sample included in this Phase 0 trial (tumor sample: 100-0039). All human GSCs were cultured as described previously.[12]
Following the fifth day of drug exposure, cells were harvested, cryopreserved to be processed at a later point, or immediately processed for single-cell RNA sequencing (10x Genomics, 3’ version 3). The single-cell RNA sequencing data were then processed via cellranger count and Seurat. Briefly, cells were filtered out based on the following criteria: minimum number of genes detected >500 and <10 000 with a maximum percentage of mitochondrial genes set to 10%. Statistical assessment was made between the malignant proportions of each cell state using a 2-sided paired t-test.
Descriptive statistics of the clinical data are included in Table 1. Comparisons between groups were conducted using a 2-sided or paired 2-sided t-test, where indicated. P < .05 was considered significant. Multiple hypothesis test corrections (ie, false discovery rate correction) were applied for snRNAseq pseudobulk differential expression analysis.

## CN(C)C(=O)c1cc2cnc(Nc3ccc(N4CCNCC4)cn3)nc2n1C1CCCC1 [ribo]
  log2FoldChange, feature HIST1H2AJ: -3.606
  log2FoldChange, feature HIST1H2AK: -2.038
  log2FoldChange, feature HIST1H2AL: -4.067
  log2FoldChange, feature HIST1H2AM: -2.962
  log2FoldChange, feature HIST1H2BB: -4.24
  log2FoldChange, feature HIST1H2BF: -2.791
  log2FoldChange, feature HIST1H2BH: -2.674
  log2FoldChange, feature HIST1H2BI: -3.141
  log2FoldChange, feature HIST1H2BK: -2.1572
  log2FoldChange, feature HIST1H2BL: -3.055
  log2FoldChange, feature HIST1H2BM: -3.899
  log2FoldChange, feature HIST1H2BO: -4.102
  log2FoldChange, feature HIST1H3A: -2.494
  log2FoldChange, feature HIST1H3B: -4.012
  log2FoldChange, feature HIST1H3C: -3.43
  log2FoldChange, feature HIST1H3D: -3.164
  log2FoldChange, feature HIST1H3F: -4.011
  log2FoldChange, feature HIST1H3G: -5.89
  log2FoldChange, feature HIST1H3I: -2.396
  log2FoldChange, feature HIST1H4A: -2.4627
  log2FoldChange, feature HIST1H4B: -3.363
  log2FoldChange, feature HIST1H4C: -2.564
  log2FoldChange, feature HIST1H4D: -2.3219
  log2FoldChange, feature HIST1H4L: -3.364
  log2FoldChange, feature HIST2H2AA4: -2.973
  log2FoldChange, feature HIST2H2AB: -2.432
  log2FoldChange, feature HIST2H2AC: -2.094
  log2FoldChange, feature HIST2H3D: -3.112
  log2FoldChange, feature HIST2H4B: -3.0547
  log2FoldChange, feature HJURP: -3.812
  log2FoldChange, feature HMGB2: -3.4975
  log2FoldChange, feature HMGN2: -1.988
  log2FoldChange, feature HMMR: -2.398
  log2FoldChange, feature HMMR-AS1: -1.986
  log2FoldChange, feature IQGAP3: -3.825
  log2FoldChange, feature KIF2C: -3.46
  log2FoldChange, feature KIF4A: -3.264
  log2FoldChange, feature KIF11: -2.445
  log2FoldChange, feature KIF14: -1.93
  log2FoldChange, feature KIF15: -2.295
  log2FoldChange, feature KIF18B: -3.458
  log2FoldChange, feature KIF20A: -5.621
  log2FoldChange, feature KIF23: -2.582
  log2FoldChange, feature KIFC1: -3.063
  log2FoldChange, feature KNL1: -2.569
  log2FoldChange, feature LHX2: -2.082
  log2FoldChange, feature LINC00243: -2.438
  log2FoldChange, feature LINC01647: -5.161
  log2FoldChange, feature LINC01775: -2.182
  log2FoldChange, feature LMNB1: -1.981
  log2FoldChange, feature MCM10: -2.2
  log2FoldChange, feature MELK: -2.093
  log2FoldChange, feature MIR924HG: -2.274
  log2FoldChange, feature MKI67: -6.243
  log2FoldChange, feature MUC22: -3.844
  log2FoldChange, feature MXD3: -2.803
  log2FoldChange, feature MYB: -2.501
  log2FoldChange, feature MYBL2: -3.875
  log2FoldChange, feature NCAPG: -2.9227
  log2FoldChange, feature NCAPH: -2.746
  log2FoldChange, feature NDC80: -2.667
  log2FoldChange, feature NEIL3: -3.743
  log2FoldChange, feature NEK2: -3.576
  log2FoldChange, feature NEURL1B: -1.929
  log2FoldChange, feature NMU: -2.574
  log2FoldChange, feature NRM: -1.8865
  log2FoldChange, feature NRTN: -3.311
  log2FoldChange, feature NT5DC4: -2.34
  log2FoldChange, feature NUSAP1: -3.196
  log2FoldChange, feature NXPH2: -2.198
  log2FoldChange, feature PAK6: -1.969
  log2FoldChange, feature PAPOLB: -2.347
  log2FoldChange, feature PBK: -3.281
  log2FoldChange, feature PCLAF: -3.5822
  log2FoldChange, feature PCNA: -1.969
  log2FoldChange, feature PIF1: -3.124
  log2FoldChange, feature PIMREG: -3.009
  log2FoldChange, feature PKMYT1: -2.904
  log2FoldChange, feature PLK1: -3.608
  log2FoldChange, feature PRC1: -2.44
  log2FoldChange, feature PRIM1: -2.274
  log2FoldChange, feature PTTG1: -2.767
  log2FoldChange, feature RAD51AP1: -1.918
  log2FoldChange, feature RAD54L: -1.967
  log2FoldChange, feature RPP25: -1.919
  log2FoldChange, feature RRM2: -5.156
  log2FoldChange, feature SAPCD2: -1.989
  log2FoldChange, feature SDC1: -2.261
  log2FoldChange, feature SHCBP1: -2.035
  log2FoldChange, feature SKA1: -3.026
  log2FoldChange, feature SLC7A3: -2.68
  log2FoldChange, feature SPAG5: -2.024
  log2FoldChange, feature SPC24: -2.603
  log2FoldChange, feature SPC25: -3.836
  log2FoldChange, feature TACC3: -2.439
  log2FoldChange, feature TICRR: -2.318
  log2FoldChange, feature TK1: -2.815
  log2FoldChange, feature TMPO-AS1: -2.127
  log2FoldChange, feature TMSB15A: -2.211
  log2FoldChange, feature TOP2A: -4.082
  log2FoldChange, feature TP73: -3.442
  log2FoldChange, feature TPX2: -2.42
  log2FoldChange, feature TROAP: -3.212
  log2FoldChange, feature TTK: -1.967
  log2FoldChange, feature TYMS: -2.957
  log2FoldChange, feature UBE2C: -3.754
  log2FoldChange, feature UBE2T: -1.955
  log2FoldChange, feature WDR76: -2.235
  log2FoldChange, feature ZWINT: -1.901
